Where “and” joins values, the source holds several entries; their conditions need not be identical. Equal values may be shown once. Non-standard residues stand in square brackets, D forms with d. Residues, ends and D or L forms follow the SMILES beside them. No end group written: not given here. *: point of attachment. X1 = C[C@H](O)[C@H](C(=O)*)N1CN2CCC[C@@H]2C1=O
Tests used:
[1] = tested on: Rat PC12 (pheochromocytoma) cells; assay: MTT cell viability assay; format: cell-based; settings: 0.125% Triton X-100, PC12 cells, 24 h, MTT
Protocol: (§1) Rat PC12 (pheochromocytoma) cells (Leibniz Institute DSMZ, Braunschweig, Germany) were cultivated in Dulbecco’s Modified Eagle Medium (DMEM) supplemented with 10% fetal bovine serum, 5% horse serum and 1% penicillin-streptomycin. 10,000 cells per well were seeded on collagen A-coated 96-well plates (Thermo Fisher Scientific, Waltham, USA) and incubated in a 95% humidified atmosphere with 5% CO2 at 37 °C for 24 h. Samples with untreated RD2 and RD2 or HSM-3 purified from human liver microsomes (see 2.8) in 10 mM sodium phosphate buffer (pH 7.4) were prepared. Buffer without peptides and Triton X-100 (cytotoxic compound) served as controls. The samples were added to the PC12 cells in quadruple and incubated in 95% humidified atmosphere with 5% CO2 at 37 °C for 24 h. Final concentrations were 2 µM untreated RD2, purified RD2, purified HSM-3 and 0.125% Triton X-100. Cell viability was then measured using the Cell Proliferation Kit I (MTT) (Roche, Basel, Switzerland) according to the manufacturer’s instruction. The final absorbance of the formazan product was determined as the absorbance at 570 nm subtracted by the absorbance at 660 nm. All results were normalized to cells that were treated with buffer only. The experiments were performed in triplicate.

[2] = Stability in human liver microsomes, RP-HPLC / UHPLC-ESI-QTOF-MS; format: in vitro ADME
Protocol: (§2) The preparation of the media was performed as described before in Elfgen et al.[24]. Preparation of simulated gastric and intestinal fluid (SGF & SIF) was done according to the European Pharmacopoeia 7.0. Plasma samples were obtained from human blood of a volunteer donor. Pooled human liver microsomes were purchased from Sekisui XenoTech (Kansas City, USA; H1000, Lot: 0710494 and 1210270; H1500, Lot: 1210079), from Sigma-Aldrich (St. Louis, USA; M0692, Lot: SLBL1433V; M0567, Lot: SLBR2706V and SLBN7300V) and from Gibco, Thermo Fisher Scientific (Waltham, USA; HMMCPL, Lot: PL050; HMMCPM, Lot: PL039). Pooled Sprague Dawley rat liver microsomes were purchased from Sigma-Aldrich (St. Louis, USA; M9066, Lot: SLBN0707V) and from Gibco, Thermo Fisher Scientific (Waltham, USA; RTMCPL, Lot: RT053). Pooled cynomolgus monkey liver microsomes were purchased from Gibco, Thermo Fisher Scientific (Waltham, USA; MKMCPL, Lot: MK062) and from Sekisui XenoTech (Kansas City, USA; P2000, Lot: 1210334). The liver microsomes were diluted in an NADPH regenerating system (NRS).
(§3) For the stability tests, 150 µM RD2 or L-RD2 was incubated in SGF, SIF, human plasma and human liver microsomes in triplicate at 37 °C with slight shaking for different time periods. To prevent microbial contaminations in long-term plasma incubations, 0.1% sodium azide was added to the solutions. Microsomal long-term activity was examined by incubating microsomes without peptide for up to 24 h and adding L-RD2 after 8 and 24 h. The ability to degrade L-RD2 served as indicator for their activity. For the comparison of RD2 metabolite profiles across species, 150 µM RD2 was incubated in human, rat and cynomolgus liver microsomes at 37 °C for 2 and 24 h. The peptides were extracted by precipitating the proteins with trichloroacetic acid (TCA) and subsequent centrifugation, as described previously in Elfgen et al.[24]. Peptides immediately extracted from the media and precipitated media without peptides served as controls.
For sample analysis from stability tests (see 2.3), mobile phases were acetonitrile (A) and water (B) each supplemented with 0.15% trifluoroacetic acid (TFA) (v/v). The samples were measured isocratically at 10% solvent A for 30 min. This run conditions allowed us to detect smallest chemical changes including the differentiation between the original compound and a deamidated version (Fig. S1). RD2 and L-RD2 can potentially be deamidated at two sites, the C-terminus and the asparagine at position seven. Peak areas of the unmetabolized peptides after different incubation times were normalized to the peptides’ peak areas after direct extraction from the media. […] A chromatographic metabolite profile of L-RD2 in SIF was recorded with the same mobile phases but using a gradient from 0 to 30% solvent A in 30 min. […]

[3] = Stability in simulated intestinal fluid (SIF), RP-HPLC; format: in vitro ADME; settings: a few seconds
Protocol: as §2
as §3, with “The peptides were extracted by precipitating the proteins with trichloroacetic acid (TCA) and subsequent centrifugation, as described previously in Elfgen et al.[24]. Peptides immediately extracted from the media and precipitated media without peptides served as controls.” left out
(§4) For sample analysis from stability tests (see 2.3), mobile phases were acetonitrile (A) and water (B) each supplemented with 0.15% trifluoroacetic acid (TFA) (v/v). The samples were measured isocratically at 10% solvent A for 30 min. […] A chromatographic metabolite profile of L-RD2 in SIF was recorded with the same mobile phases but using a gradient from 0 to 30% solvent A in 30 min.

[4] = Stability in simulated gastric fluid (SGF), RP-HPLC; format: in vitro ADME; settings: 37 °C, read-out: peptide degraded
Protocol: as §2, with “The liver microsomes were diluted in an NADPH regenerating system (NRS).” left out
as §4

[5] = Stability in human plasma, RP-HPLC; format: in vitro ADME; settings: female, 37 °C
Protocol: as §2, §3
For sample analysis from stability tests (see 2.3), mobile phases were acetonitrile (A) and water (B) each supplemented with 0.15% trifluoroacetic acid (TFA) (v/v). The samples were measured isocratically at 10% solvent A for 30 min. This run conditions allowed us to detect smallest chemical changes including the differentiation between the original compound and a deamidated version (Fig. S1). RD2 and L-RD2 can potentially be deamidated at two sites, the C-terminus and the asparagine at position seven. Peak areas of the unmetabolized peptides after different incubation times were normalized to the peptides’ peak areas after direct extraction from the media. […] A chromatographic metabolite profile of L-RD2 in SIF was recorded with the same mobile phases but using a gradient from 0 to 30% solvent A in 30 min.

[6] = target: T1, human D-amino acid oxidase (hDAAO) (Homo sapiens, UniProt P14920); assay: hDAAO activity assay (substrate test); format: biochemical; settings: 0.2 mM D-alanine as substrate, 2 h incubation
T1 construct: made in house; host or cells: E. coli
T1 sequence (P14920 whole entry): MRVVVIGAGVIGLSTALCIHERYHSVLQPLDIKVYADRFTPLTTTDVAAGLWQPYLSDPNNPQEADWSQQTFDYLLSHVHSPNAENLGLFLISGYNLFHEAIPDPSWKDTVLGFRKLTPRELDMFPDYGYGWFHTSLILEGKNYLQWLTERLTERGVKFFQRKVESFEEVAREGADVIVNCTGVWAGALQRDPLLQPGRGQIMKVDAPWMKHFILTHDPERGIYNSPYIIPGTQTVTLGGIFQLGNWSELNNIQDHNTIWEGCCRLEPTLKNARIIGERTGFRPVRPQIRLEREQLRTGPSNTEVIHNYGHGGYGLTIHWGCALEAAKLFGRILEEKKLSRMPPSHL
Protocol: (§5) For hDAAO activity and inhibition assays, the tested substances were incubated with 0.17 U/mL recombinant hDAAO, 0.1 U/mL horseradish peroxidase (Roche, Switzerland) and 4 µM flavin adenine dinucleotide (FAD) in 50 mM sodium phosphate buffer (pH 7.4). […] The Amplex UltraRed reagent is a fluorogenic substrate for horseradish peroxidase that reacts with the hydrogen peroxide produced by the oxidative deamination of D-amino acids to build Amplex UltroxRed, a fluorescent reaction product, which served as indicator for hDAAO activity. All enzymatic assays were conducted at room temperature in 96-well plate format using an automated liquid-handler system (epMotion 5075; Eppendorf, Hamburg, Germany). Recombinant hDAAO was overexpressed in E. coli and purified as previously reported.
To investigate whether RD2 acts as substrate for hDAAO, the enzyme was incubated with 2.9 mM RD2, horseradish peroxidase and FAD for up to 6 h and the fluorescence signal of the Amplex UltroxRed reagent was measured (sample values). Positive control measurements using 0.2 mM D-alanine as substrate were performed in parallel. Additionally, negative control measurements without substrates were performed. The relative emission at 590 nm was determined by subtracting control measurements to sample values.

[7] = target: T1, human D-amino acid oxidase (hDAAO); assay: hDAAO inhibition assay; format: biochemical; settings: 7.5 mM D-serine, 30 min
Protocol: as §5
To examined whether RD2 inhibits hDAAO activity, the enzyme was incubated with 7.5 mM D-serine alone and together with 0 to 625 µM RD2 or sodium benzoate (a known hDAAO inhibitor)[30], horseradish peroxidase and FAD for 30 min and the fluorescence signal of Amplex UltroxRed was recorded. hDAAO residual activity in the presence of different concentrations of RD2 or sodium benzoate was expressed relatively to the values recorded in the absence of ligands (set as 100% activity). The data were fit to a four-parameter equation to determine the curve top, bottom, IC50 and Hill slope.

CYP1A = target: T2, CYP1A (Homo sapiens, UniProt P05177); assay: CYP isoform inhibition in human liver microsomes (Cyprotex); settings: human, human liver microsomes, probe ethoxyresorufin (0.5 µM)
T2 sequence (P05177 2-516): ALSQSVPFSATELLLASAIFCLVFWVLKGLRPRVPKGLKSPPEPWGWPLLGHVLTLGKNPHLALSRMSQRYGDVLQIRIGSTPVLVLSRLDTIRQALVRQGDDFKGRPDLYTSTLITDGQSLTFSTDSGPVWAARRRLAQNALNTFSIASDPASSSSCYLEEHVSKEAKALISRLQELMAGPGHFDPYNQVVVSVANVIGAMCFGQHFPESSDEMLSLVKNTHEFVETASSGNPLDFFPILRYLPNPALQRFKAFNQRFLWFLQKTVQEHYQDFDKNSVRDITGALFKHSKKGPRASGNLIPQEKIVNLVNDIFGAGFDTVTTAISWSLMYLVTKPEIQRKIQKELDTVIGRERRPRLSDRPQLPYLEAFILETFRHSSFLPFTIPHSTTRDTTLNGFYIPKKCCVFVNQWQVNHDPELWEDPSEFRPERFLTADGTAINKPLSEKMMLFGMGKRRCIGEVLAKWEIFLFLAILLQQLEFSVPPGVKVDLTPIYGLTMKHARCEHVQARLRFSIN
Protocol: The experiments were performed by Cyprotex. […] The reactions were terminated by methanol and the generated metabolites were monitored by LC-MS/MS or fluorescence. […] All assays were performed sevenfold. […] For all other substrates, the termination plates were centrifuged at 2,500 rpm and 4 °C for 30 min and aliquots of the supernatants were combined and transferred to fresh 96-well plates. Formic acid in deionized water (final concentration 0.1%) containing internal standard was added to the supernatants prior to cassette analysis by LC-MS/MS. A decrease in the formation of the metabolite compared to the vehicle control was used to calculate the IC50 values.

[8] = Comparison of RD2 metabolite profiles across species: cynomolgus liver microsomes; format: in vitro ADME, cynomolgus monkey; settings: cynomolgus microsome batches, LC-MS
Protocol: as §2
as §3, with “The peptides were extracted by precipitating the proteins with trichloroacetic acid (TCA) and subsequent centrifugation, as described previously in Elfgen et al.[24]. Peptides immediately extracted from the media and precipitated media without peptides served as controls.” left out
(§6) For the comparison of RD2 metabolite profiles across species (see 2.3), mobile phases were acetonitrile (A) and water (B) each supplemented with 0.1% TFA. […] The amount of the purified HSM-3 was calculated based on a calibration curve of 10 to 100 µM RD2 extracted from human liver microsomes.

MTT cell viability assay = format: cell-based, rat; settings: cell viability
Protocol: as §1

[9] = Stability of purified HSM-3 stored in solution (MALDI-MS, UHPLC-ESI-QTOF-MS); format: physicochemical; settings: stored in solution at low temperatures
[10] = Comparison of RD2 metabolite profiles across species: rat liver microsomes; format: in vitro ADME; settings: rat microsome batches, LC-MS
Protocol: as §2
as §3, with “The peptides were extracted by precipitating the proteins with trichloroacetic acid (TCA) and subsequent centrifugation, as described previously in Elfgen et al.[24]. Peptides immediately extracted from the media and precipitated media without peptides served as controls.” left out
as §6

[11] = Comparison of RD2 metabolite profiles across species: human liver microsomes; format: in vitro ADME
Protocol: as §2, §3
For the comparison of RD2 metabolite profiles across species (see 2.3), mobile phases were acetonitrile (A) and water (B) each supplemented with 0.1% TFA. The gradient ran from 0 to 100% solvent A and is described in detail in Table S1. The chromatographic RD2 metabolite profiles were screened for potential human-specific metabolites. RD2 and the major RD2 metabolite present after 24 h of incubation in human liver microsome batches 7 and 8, HSM-3, were purified by RP-HPLC. Mobile phases were acetonitrile (A) and water (B) each supplemented with 0.15% TFA. The samples were separated isocratically at 10% solvent A for 30 min. RD2 as well as HSM-3 were collected and the samples were freeze-dried subsequently. The amount of the purified HSM-3 was calculated based on a calibration curve of 10 to 100 µM RD2 extracted from human liver microsomes.

## Triton X-100 [reference compound]
[1]
  cell viability: 14 ± 1%

## PTLHTHNRRRRR-NH2 [L-RD2, reference compound]
[2]; UHPLC-ESI-QTOF-MS
  deamidation in human liver microsomes: increasingly metabolized to the one-fold deamidated species
[2]; pooled human liver microsomes, 150 µM, 37 °C, within 30 min, read-out: peptide degraded
  metabolised at 0.5 h, 150 µM: 87 ± 1%
[3]; 150 µM
  metabolization in SIF: completely metabolized within a few seconds
[4]
  metabolised at 24 h, 150 µM: 23 ± 4%
[5]; 150 µM, within one day, read-out: peptide degraded
  metabolised at 24 h, 150 µM: 92 ± 4%
[5]; read-out: half-life (first order kinetics fit) (converted)
  half-life at 150 µM: 2 h

## C[C@@H](N)C(=O)O [D-alanine]
[6]
  recorded emission at 590 nm: 61125 ± 2120 AU

## O=C([O-])c1ccccc1.[Na+] [sodium benzoate]
[7]; 625 µM
  decrease in hDAAO activity: 92.8 ± 0.1% and 93 ± 0.1%
[7]; read-out: IC50 hDAAO (four-parameter fit)
  IC50: 7 µM

## KLVFFRRRRRR-NH2
[3]
  detection of the peptide after incubation in SIF: could not be detected

## O=c1cc(-c2ccccc2)oc2c1ccc1ccccc12 [Alpha-naphthoflavone, reference compound]
CYP1A
  IC50: 0.0781 µM

## CC(C)C[C@@H](NC(=O)[C@@H]([C@H](C)O)N1CN2CCC[C@@H]2C1=O)C(=O)N[C@H](Cc1c[nH]cn1)C(=O)N[C@@H](C(=O)N[C@H](Cc1c[nH]cn1)C(=O)N[C@H](CC(N)=O)C(=O)N[C@H](CCCNC(=N)N)C(=O)N[C@H](CCCNC(=N)N)C(=O)N[C@H](CCCNC(=N)N)C(=O)N[C@H](CCCNC(=N)N)C(=O)N[C@H](CCCNC(=N)N)C(N)=O)[C@H](C)O [HSM-3] (X1-[dL][dH][dT][dH][dN][dR][dR][dR][dR][dR]-NH2; C-terminus assumed)
[8]
  detection of HSM-3 after incubation of RD2: not detectable
MTT cell viability assay
  viability at 2 µM: 99 ± 3%
[9]
  stability of purified HSM-3 in solution: instable and reacted back to RD2
[10]
  detection of HSM-3 after incubation of RD2: not detectable
[11]; human microsome batches 7 and 8, 2 h
  metabolite relative to the parent compound: 1% and 5%
[11]; human microsome batches 7 and 8, 24 h
  metabolite relative to the parent compound: 31% and 52%
[11]; other six human microsome batches, LC-MS
  detection of HSM-3 after incubation of RD2: not detectable

From PMC6450887, “Metabolic resistance of the D-peptide RD2 developed for direct elimination of amyloid-β oligomers” (Scientific Reports, 2019)
